Results published in patent US10392391B2 (Vertex Pharmaceuticals Incorporated, priority 2012, dated 2019).
Like-named read-outs stand apart in the source and are kept apart here.

Target: ATR kinase (full-length ATR) (Homo sapiens (Human), UniProt Q13535)
Test: ATR inhibition assay (radioactive-phosphate incorporation)
Type: biochemical
Procedure, shortened: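 Radiometric 33P incorporation by 5 nM full-length ATR into 800 μM target peptide with 10 μM [γ-33P]ATP, in 50 mM Tris/HCl pH 7.5, 10 mM MgCl2, 1 mM DTT, 7% DMSO, 25° C. Compound pre-incubated 10 minutes; reaction stopped after 24 hours, captured on phosphocellulose. Ki(app) from non-linear regression of initial rates.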

[1] = Ki(app), 5 nM full-length ATR, 10 μM ATP, 25° C.

Chain of ATR kinase (full-length ATR) (Q13535 whole entry): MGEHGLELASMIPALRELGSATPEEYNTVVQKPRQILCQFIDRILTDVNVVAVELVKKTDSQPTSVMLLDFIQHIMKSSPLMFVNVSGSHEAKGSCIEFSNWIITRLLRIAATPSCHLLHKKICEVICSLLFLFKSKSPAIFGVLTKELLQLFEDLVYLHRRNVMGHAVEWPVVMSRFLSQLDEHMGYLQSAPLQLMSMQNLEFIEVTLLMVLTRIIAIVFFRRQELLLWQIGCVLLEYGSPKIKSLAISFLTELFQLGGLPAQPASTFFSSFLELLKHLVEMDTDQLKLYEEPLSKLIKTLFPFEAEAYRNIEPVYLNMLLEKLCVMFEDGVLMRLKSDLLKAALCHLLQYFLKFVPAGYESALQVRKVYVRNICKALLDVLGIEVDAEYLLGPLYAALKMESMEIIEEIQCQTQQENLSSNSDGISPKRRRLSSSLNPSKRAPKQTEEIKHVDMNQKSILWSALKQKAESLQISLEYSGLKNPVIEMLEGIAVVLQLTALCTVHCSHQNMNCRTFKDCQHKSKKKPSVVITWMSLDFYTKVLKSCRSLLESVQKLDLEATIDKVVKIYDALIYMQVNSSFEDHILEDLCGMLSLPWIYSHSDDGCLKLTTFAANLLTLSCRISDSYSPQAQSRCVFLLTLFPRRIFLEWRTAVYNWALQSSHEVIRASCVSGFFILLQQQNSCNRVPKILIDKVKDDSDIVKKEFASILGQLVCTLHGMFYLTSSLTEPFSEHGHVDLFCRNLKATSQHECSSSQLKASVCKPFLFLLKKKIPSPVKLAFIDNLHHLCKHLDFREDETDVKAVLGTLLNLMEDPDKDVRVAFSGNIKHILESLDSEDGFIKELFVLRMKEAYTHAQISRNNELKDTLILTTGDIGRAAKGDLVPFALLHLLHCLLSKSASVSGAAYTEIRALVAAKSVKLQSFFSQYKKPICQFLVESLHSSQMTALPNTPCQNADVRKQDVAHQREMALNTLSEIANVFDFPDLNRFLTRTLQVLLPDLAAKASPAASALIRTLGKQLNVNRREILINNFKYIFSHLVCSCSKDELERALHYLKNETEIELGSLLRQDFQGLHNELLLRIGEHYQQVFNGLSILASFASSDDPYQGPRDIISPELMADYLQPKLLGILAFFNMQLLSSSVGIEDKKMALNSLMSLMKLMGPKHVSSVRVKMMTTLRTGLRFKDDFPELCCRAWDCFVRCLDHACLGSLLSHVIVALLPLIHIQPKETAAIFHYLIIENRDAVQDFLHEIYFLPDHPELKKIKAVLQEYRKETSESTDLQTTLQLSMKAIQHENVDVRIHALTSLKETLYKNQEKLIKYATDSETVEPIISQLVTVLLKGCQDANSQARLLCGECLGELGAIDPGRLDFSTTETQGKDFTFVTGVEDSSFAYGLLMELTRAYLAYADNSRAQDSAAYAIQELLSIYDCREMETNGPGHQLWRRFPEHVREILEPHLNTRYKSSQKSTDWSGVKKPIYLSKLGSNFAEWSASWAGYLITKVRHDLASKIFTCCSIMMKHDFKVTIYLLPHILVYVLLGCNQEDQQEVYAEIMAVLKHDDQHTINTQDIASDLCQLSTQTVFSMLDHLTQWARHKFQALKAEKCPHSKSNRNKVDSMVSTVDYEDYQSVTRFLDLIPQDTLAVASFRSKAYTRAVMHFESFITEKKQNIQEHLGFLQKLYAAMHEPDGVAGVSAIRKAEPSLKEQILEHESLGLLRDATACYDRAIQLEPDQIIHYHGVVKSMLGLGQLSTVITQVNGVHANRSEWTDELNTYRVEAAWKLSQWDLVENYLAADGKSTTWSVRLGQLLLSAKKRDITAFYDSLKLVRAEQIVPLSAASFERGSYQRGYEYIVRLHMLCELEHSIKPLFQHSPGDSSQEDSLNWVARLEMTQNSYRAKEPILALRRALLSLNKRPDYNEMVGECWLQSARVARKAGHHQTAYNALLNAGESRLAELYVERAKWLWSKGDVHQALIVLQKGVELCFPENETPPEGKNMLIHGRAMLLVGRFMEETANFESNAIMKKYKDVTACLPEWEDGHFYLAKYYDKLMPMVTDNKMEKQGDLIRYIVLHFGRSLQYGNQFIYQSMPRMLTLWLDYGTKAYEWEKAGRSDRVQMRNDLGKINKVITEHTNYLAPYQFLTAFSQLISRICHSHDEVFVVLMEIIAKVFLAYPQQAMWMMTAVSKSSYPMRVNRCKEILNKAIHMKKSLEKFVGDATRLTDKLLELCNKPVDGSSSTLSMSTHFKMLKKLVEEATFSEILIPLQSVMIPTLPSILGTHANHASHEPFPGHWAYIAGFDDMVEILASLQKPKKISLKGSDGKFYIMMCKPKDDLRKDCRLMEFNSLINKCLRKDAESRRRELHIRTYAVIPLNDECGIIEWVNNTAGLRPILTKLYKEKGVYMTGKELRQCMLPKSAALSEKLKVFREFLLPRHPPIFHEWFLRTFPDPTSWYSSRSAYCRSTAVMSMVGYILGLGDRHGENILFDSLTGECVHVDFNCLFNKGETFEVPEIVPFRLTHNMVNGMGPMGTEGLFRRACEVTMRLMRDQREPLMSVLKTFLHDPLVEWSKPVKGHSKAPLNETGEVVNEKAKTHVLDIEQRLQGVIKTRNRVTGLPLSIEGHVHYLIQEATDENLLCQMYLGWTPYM

Work on `Nc1nn2cc(F)cnc2c1C(=O)Nc1cnccc1N1CCN(C(=O)C2COC2)CC1` [I-N-249] yielded a Ki [1] of 0.01 to 1 µM.
In the case of `CCOc1ccncc1NC(=O)c1c(N)nn2cc(Cl)cnc12` [I-O-56, 2-amino-6-chloro-N-(4-ethoxypyridin-3-yl)pyrazolo[1,5-a]pyrimidine-3-carboxamide], the Ki [1] is reported as 0.01 to 1 µM.
`CC(=O)N1CCC2(CCN(c3ccncc3NC(=O)c3c(N)nn4cc(F)cnc34)CC2)C1` [I-N-257, N-(4-(2-acetyl-2,8-diazaspiro[4.5]decan-8-yl)pyridin-3-yl)-2-amino-6-fluoropyrazolo[1,5-a]pyrimidine-3-carboxamide] was tested, and the Ki [1] was 0.01 to 1 µM.
With `CNC1CN(C(=O)C2CCN(c3c(F)cncc3NC(=O)c3c(N)nn4cc(F)cnc34)CC2)C1` [I-G-34, 2-amino-6-fluoro-N-(5-fluoro-4-(4-(3-(methylamino)azetidine-1-carbonyl)piperidin-1-yl)pyridin-3-yl)pyrazolo[1,5-a]pyrimidine-3-carboxamide] the Ki [1] was 0.01 to 1 µM.
In the case of `CN1CC(OC2CCN(c3ccncc3NC(=O)c3c(N)nn4cc(F)cnc34)CC2)C1` [I-N-164, 2-amino-6-fluoro-N-(4-(4-((1-methylazetidin-3-yl)oxy)piperidin-1-yl)pyridin-3-yl)pyrazolo[1,5-a]pyrimidine-3-carboxamide], the Ki [1] is reported as 0.01 to 1 µM.
With `Nc1nn2cc(F)cnc2c1C(=O)Nc1cnccc1OC1CN2CCC1CC2` (racemic) [I-O-6, (R,S)-2-amino-6-fluoro-N-(4-(quinuclidin-3-yloxy)pyridin-3-yl)pyrazolo[1,5-a]pyrimidine-3-carboxamide] the Ki [1] was 0.01 to 1 µM.
For `Nc1nn2cc(F)cnc2c1C(=O)Nc1cncc(F)c1N1CCN2C(=O)CCC[C@@H]2C1` [I-N-280, (R)-2-amino-6-fluoro-N-(5-fluoro-4-(6-oxohexahydro-1H-pyrido[1,2-a]pyrazin-2(6H)-yl)pyridin-3-yl)pyrazolo[1,5-a]pyrimidine-3-carboxamide], the Ki [1] was 0.01 to 1 µM.
Compound `C[C@@H]1CN(C(=O)C2CCN(c3c(F)cncc3NC(=O)c3c(N)nn4cc(F)cnc34)CC2)CCN1C` [I-G-50, (R)-2-amino-N-(4-(4-(3,4-dimethylpiperazine-1-carbonyl)piperidin-1-yl)-5-fluoropyridin-3-yl)-6-fluoropyrazolo[1,5-a]pyrimidine-3-carboxamide] has a Ki [1] of 0.01 to 1 µM.
`Cc1ncccc1-c1ccncc1NC(=O)c1c(N)nn2cc(F)cnc12` [I-C-20, 2-amino-6-fluoro-N-(2-methyl-[3,4′-bipyridin]-3′-yl)pyrazolo[1,5-a]pyrimidine-3-carboxamide] gave a Ki [1] of 0.01 to 1 µM.
With `C[C@H]1CN(C(=O)C2CCN(c3c(F)cncc3NC(=O)c3c(N)nn4cc(F)cnc34)CC2)CCN1` [I-G-61, (S)-2-amino-6-fluoro-N-(5-fluoro-4-(4-(3-methylpiperazine-1-carbonyl)piperidin-1-yl)pyridin-3-yl)pyrazolo[1,5-a]pyrimidine-3-carboxamide] the Ki [1] was 0.01 to 1 µM.
Compound `Nc1nn2cc(F)cnc2c1C(=O)Nc1cnccc1O[C@H]1CCCNC1` [I-O-85, (S)-2-amino-6-fluoro-N-(4-(piperidin-3-yloxy)pyridin-3-yl)pyrazolo[1,5-a]pyrimidine-3-carboxamide] has a Ki [1] of 0.01 to 1 µM.
Work on `Nc1nn2cc(F)cnc2c1C(=O)Nc1cnccc1OC1CCN(C2COC2)CC1` [I-O-11, 2-amino-6-fluoro-N-(4-((1-(oxetan-3-yl)piperidin-4-yl)oxy)pyridin-3-yl)pyrazolo[1,5-a]pyrimidine-3-carboxamide] yielded a Ki [1] of 0.01 to 1 µM.
With `Nc1nn2cc(F)cnc2c1C(=O)Nc1cnccc1N1CCC(c2nnco2)CC1` [I-N-268, N-(4-(4-(1,3,4-oxadiazol-2-yl)piperidin-1-yl)pyridin-3-yl)-2-amino-6-fluoropyrazolo[1,5-a]pyrimidine-3-carboxamide] the Ki [1] was 0.01 to 1 µM.
Work on `N#CCc1cnc2c(C(=O)Nc3cnccc3OC3CCOCC3)c(N)nn2c1` [I-O-30, 2-amino-6-(cyanomethyl)-N-(4-((tetrahydro-2H-pyran-4-yl)oxy)pyridin-3-yl)pyrazolo[1,5-a]pyrimidine-3-carboxamide] yielded a Ki [1] of less than 0.01 µM.
With `CN1CCOCC1C(=O)N1CCN(c2c(F)cncc2NC(=O)c2c(N)nn3cc(F)cnc23)CC1` (stereo not shown) [I-N-227, 2-amino-6-fluoro-N-(5-fluoro-4-(4-(4-methylmorpholine-3-carbonyl)piperazin-1-yl)pyridin-3-yl)pyrazolo[1,5-a]pyrimidine-3-carboxamide] the Ki [1] was 0.01 to 1 µM.
`COCC1CN(C(=O)C2CCN(c3c(F)cncc3NC(=O)c3c(N)nn4cc(F)cnc34)CC2)C1` [I-G-98, 2-amino-6-fluoro-N-(5-fluoro-4-(4-(3-(methoxymethyl)azetidine-1-carbonyl)piperidin-1-yl)pyridin-3-yl)pyrazolo[1,5-a]pyrimidine-3-carboxamide] showed a Ki [1] of 0.01 to 1 µM.
In the case of `Cc1cncnc1-c1ccncc1NC(=O)c1c(N)nn2cc(F)cnc12` [I-C-67, 2-amino-6-fluoro-N-(4-(5-methylpyrimidin-4-yl)pyridin-3-yl)pyrazolo[1,5-a]pyrimidine-3-carboxamide], the Ki [1] is reported as 0.01 to 1 µM.
`Cn1c(-c2ccncc2NC(=O)c2c(N)nn3cc(F)cnc23)cccc1=O` [I-C-58, 2-amino-6-fluoro-N-(1-methyl-6-oxo-1,6-dihydro-[2,4′-bipyridin]-3′-yl)pyrazolo[1,5-a]pyrimidine-3-carboxamide] was tested, and the Ki [1] was 0.01 to 1 µM.
`CN(C)CCCOc1ccncc1NC(=O)c1c(N)nn2cc(Cl)cnc12` [I-O-52, 2-amino-6-chloro-N-(4-(3-(dimethylamino)propoxy)pyridin-3-yl)pyrazolo[1,5-a]pyrimidine-3-carboxamide] was tested, and the Ki was 1 to 5 µM.
Compound `CC1CN(c2ccncc2NC(=O)c2c(N)nn3cc(Cl)cnc23)CCN1C` (stereo not shown) [I-N-54, 2-amino-6-chloro-N-(4-(3,4-dimethylpiperazin-1-yl)pyridin-3-yl)pyrazolo[1,5-a]pyrimidine-3-carboxamide] has a Ki [1] of 0.01 to 1 µM.
`Nc1nn2cc(Cl)cnc2c1C(=O)Nc1cnccc1N1CCC(N2CCC23COC3)CC1` [I-N-109, N-(4-(4-(6-oxa-1-azaspiro[3.3]heptan-1-yl)piperidin-1-yl)pyridin-3-yl)-2-amino-6-chloropyrazolo[1,5-a]pyrimidine-3-carboxamide] was tested, and the Ki [1] was 0.01 to 1 µM.
With `Nc1nn2cc(Cl)cnc2c1C(=O)Nc1cnccc1N1CCN2CCC[C@@H]2C1` [I-N-65, (R)-2-amino-6-chloro-N-(4-(hexahydropyrrolo[1,2-a]pyrazin-2(1H)-yl)pyridin-3-yl)pyrazolo[1,5-a]pyrimidine-3-carboxamide] the Ki [1] was 0.01 to 1 µM.
Work on `CN1CCC(C(=O)N2CC=C(c3c(F)cncc3NC(=O)c3c(N)nn4cc(F)cnc34)CC2)CC1` [I-C-38, 2-amino-6-fluoro-N-(5-fluoro-1′-(1-methylpiperidine-4-carbonyl)-1′,2′,3′,6′-tetrahydro-[4,4′-bipyridin]-3-yl)pyrazolo[1,5-a]pyrimidine-3-carboxamide] yielded a Ki [1] of 0.01 to 1 µM.
Work on `Nc1nn2cc(F)cnc2c1C(=O)Nc1cncc(Cl)c1N1CCC(C(=O)N2CCN3CCC2C3)CC1` (stereo not shown) [I-G-69, N-(4-(4-(1,4-diazabicyclo[3.2.1]octane-4-carbonyl)piperidin-1-yl)-5-chloropyridin-3-yl)-2-amino-6-fluoropyrazolo[1,5-a]pyrimidine-3-carboxamide] yielded a Ki [1] of 0.01 to 1 µM.
For `CN(C)CCc1cnn(-c2ccncc2NC(=O)c2c(N)nn3cc(F)cnc23)c1` [I-N-9, 2-amino-N-(4-(4-(2-(dimethylamino)ethyl)-1H-pyrazol-1-yl)pyridin-3-yl)-6-fluoropyrazolo[1,5-a]pyrimidine-3-carboxamide], the Ki was 1 to 5 µM.
Compound `CN1CCN(c2c(F)cncc2NC(=O)c2c(N)nn3cc(F)cnc23)CC1` [I-N-15, 2-amino-6-fluoro-N-(5-fluoro-4-(4-methylpiperazin-1-yl)pyridin-3-yl)pyrazolo[1,5-a]pyrimidine-3-carboxamide] has a Ki [1] of 0.01 to 1 µM.
Work on `Cc1ccn(-c2ccncc2NC(=O)c2c(N)nn3cc(F)cnc23)n1` [I-N-225, 2-amino-6-fluoro-N-(4-(3-methyl-1H-pyrazol-1-yl)pyridin-3-yl)pyrazolo[1,5-a]pyrimidine-3-carboxamide] yielded a Ki [1] of 0.01 to 1 µM.
For `Nc1nn2cc(F)cnc2c1C(=O)Nc1cncc(F)c1N1CCC(C(=O)N2CC[C@H](N3CCCC3)C2)CC1` [I-G-58, (S)—N-(4-(4-([1,3′-bipyrrolidine]-1′-carbonyl)piperidin-1-yl)-5-fluoropyridin-3-yl)-2-amino-6-fluoropyrazolo[1,5-a]pyrimidine-3-carboxamide], the Ki [1] was 0.01 to 1 µM.
`Cc1ccncc1NC(=O)c1c(N)nn2cc(F)cnc12` [I-C-4, 2-amino-6-fluoro-N-(4-methylpyridin-3-yl)pyrazolo[1,5-a]pyrimidine-3-carboxamide] was tested, and the Ki [1] was 0.01 to 1 µM.
Work on `Nc1nn2cc(F)cnc2c1C(=O)Nc1cncc(F)c1N1CCC(CN2CCCC2=O)CC1` [I-N-213, 2-amino-6-fluoro-N-(5-fluoro-4-(4-((2-oxopyrrolidin-1-yl)methyl)piperidin-1-yl)pyridin-3-yl)pyrazolo[1,5-a]pyrimidine-3-carboxamide] yielded a Ki [1] of 0.01 to 1 µM.
In the case of `CC(C)N1CCC(C(=O)N2CCN(c3c(F)cncc3NC(=O)c3c(N)nn4cc(F)cnc34)CC2)C1` (stereo not shown) [I-N-206, 2-amino-6-fluoro-N-(5-fluoro-4-(4-(1-isopropylpyrrolidine-3-carbonyl)piperazin-1-yl)pyridin-3-yl)pyrazolo[1,5-a]pyrimidine-3-carboxamide], the Ki [1] is reported as 0.01 to 1 µM.
With `CC(C)(O)CN1CCN(c2c(F)cncc2NC(=O)c2c(N)nn3cc(F)cnc23)CC1` [I-N-139, 2-amino-6-fluoro-N-(5-fluoro-4-(4-(2-hydroxy-2-methylpropyl)piperazin-1-yl)pyridin-3-yl)pyrazolo[1,5-a]pyrimidine-3-carboxamide] the Ki [1] was 0.01 to 1 µM.
`COC1CCN(C2CCN(c3ccncc3NC(=O)c3c(N)nn4cc(Cl)cnc34)CC2)C1` (stereo not shown) [I-N-95, 2-amino-6-chloro-N-(4-(4-(3-methoxypyrrolidin-1-yl)piperidin-1-yl)pyridin-3-yl)pyrazolo[1,5-a]pyrimidine-3-carboxamide] gave a Ki [1] of 0.01 to 1 µM.
`CN1CCN(CC2CCN(c3c(F)cncc3NC(=O)c3c(N)nn4cc(F)cnc34)CC2)CC1` [I-N-150, 2-amino-6-fluoro-N-(5-fluoro-4-(4-((4-methylpiperazin-1-yl)methyl)piperidin-1-yl)pyridin-3-yl)pyrazolo[1,5-a]pyrimidine-3-carboxamide] gave a Ki [1] of 0.01 to 1 µM.
